In brackets after ≈: the same amount, converted by molar mass. Blank lines part the entries; values can stand above or below the compound they belong to.
How the values were obtained:
Pyrenophora graminea = assay: Anti-fungal activity in vitro; type: cell-based; details: 48 h, GY medium, 28° C., 2 days
Experimental: (§1) (1) Each test compound was diluted by two-fold dilution with GY medium (2% glucose and 0.4% yeast extract) containing 0.01% Tween 80 (trademark). Every diluted solution was inoculated with spore suspension (10^5-5 spores/ml) of Alternaria kikuchiana or a hyphae disk with agar (4 mm in diameter) of other fungi and incubated at 28° C. for 2 days.

Monilinia fructicola = assay: Anti-fungal activity in vitro; type: cell-based; details: 48 h, GY medium, 28° C., 2 days
Experimental: as §1

Cochiobolus sativus = assay: Anti-fungal activity in vitro; type: cell-based; details: 48 h; GY medium, 28° C., 2 days
Experimental: as §1

Corticium rolfsii = assay: Anti-fungal activity in vitro; type: cell-based; details: Agroathelia rolfsii, 48 h; GY medium, 28° C., 2 days
Experimental: as §1

Diaporthe citri = assay: Anti-fungal activity in vitro; type: cell-based; details: 48 h, GY medium, 28° C., 2 days
Experimental: as §1

Ustilago nuda = assay: Anti-fungal activity in vitro; type: cell-based; details: 48 h, GY medium, 28° C., 2 days
Experimental: as §1

Cladosporium herbarum = assay: Anti-fungal activity in vitro; type: cell-based; details: 48 h, GY medium, 28° C., 2 days
Experimental: as §1

Alternaria kikuchiana = assay: Anti-fungal activity in vitro; type: cell-based; details: 48 h, GY medium, 28° C., 2 days, spore suspension
Experimental: as §1

[1] = tested on: powdery mildew of cucumber and Borytis rot (gray mold) of cucumber; assay: Comparative test of cis- and trans-isomers; type: in vivo; details: cis isomer vs trans isomer, about
From the text: Each cis- and trans-isomers of 1-(4-chlorophenyl)-2-(1,2,4-triazol-1-yl)cyclohexanol (Compound 22 and the trans-isomer)) and 1-(4-fluorophenyl)-2-(1,2,4-triazol-1-yl)cyclohexanol (Compound 28 and the trans-isomer) are subjected to control test to powdery mildew of cucumber and to Borytis rot (gray mold) of cucumber.
(§2) (1) Test methods and evaluation are the same as those in Tests 2, 4 and 6.

Puccinia coronata = assay: Control test of crown rust of oat; type: in vivo
Experimental: (1) Young oats (Cultivar: Pc38) grown in pots in a greenhouse were (i) sprayed with 10 ml each of solution of the test compounds at a prescribed concentration and after air-drying, they were inoculated with 15 mg of uredospores of Puccinia coronata per 20 pots (protective spraying) or (ii) sprayed with the test solution 3 days after inoculation of uredospores. After each plant was kept at 20°-25° C. in a greenhouse for 2 weeks, number of uredia was counted on the first leaf.

Sclerotinia sclerotiorum = assay: Control test to Sclerotinia rot of cucumber; type: in vivo
From the text: (1) This test was practised in the same manner as in the above test, control test of Botrytis rot (gray mold) of cucumber, except for using the mycelium of Sclerotinia sclerotiorum as inoculm. The same as in test 2.

Botrytis cinerea = assay: Control test of Botrytis rot (gray mold) of cucumber; type: in vivo
Sphaerotheca fuliginea [2] = assay: Control test to powdery mildew of cucumber by vapor (filter paper disks); type: in vivo
Experimental: (1) The first leaves of young cucumber (Cultivar: Matsukaze) planted in pot of 9 cm in diameter were inoculated with spore suspension of Sphaerotheca fuliginea. After the plants were kept in a greenhouse for 2 days, thin cover plates, 15 mm in diameter, were put on the first leaves. Filter paper disks soaked with 80 μl of test solution at a concentration of 31.3, 7.8, 2.0 or 0.5 ppm were put on the plates for 3 days. Disease degrees were observed 14 days after the inoculation.
It is evaluated as + when an inhibition zone was observed around the plate, as ± when the inhibition zone has nearly the same diameter (8 mm) as that of plate or as - when there is no inhibition zone.
as §2

Sphaerotheca fuliginea [3] = assay: Control test to powdery mildew of cucumber (foliar and soil treatment); type: in vivo; details: index 0-10
Rhizoctonia solani = assay: Control test to damping-off of cucumber (Rhizoctonia solani); type: in vivo; details: 31.3 ppm, soil drench, 14 days
Experimental: (1) The fungus causing damping-off of cucumber seedlings, Rhizoctonia solani or Fusarium oxysporum was cultured on a wheat bran medium at 28° C. for 5 days, which was mixed with sterilized soil and cultured for 2 days to prepare the inoculum. Sterilized soil (150 g) was put into a pot of 9 cm in diameter. The surface of the spot was covered with the above inoculum. […] Twenty cucumber seeds (Cultivar: Matsukaze) were sown 2 days after. The pots were kept at 30°±2° C. for 14 days. The infection was observed 14 days after and disease degree and percent disease degree were obtained by setting an evaluation index for each disease sympton.
(2) Evaluation [formula] wherein a: number of seeds without germination b: number of seedlings showing damping-off c: number of wilted seedlings d: number of seedlings being a little brownish in cotyledons or at the bottom of the stem e: number of uninfected seedlings [formula] wherein a: number of seeds without germination or seedlings with damping-off b: number of wilted seedlings c: number of seedlings being a little brownish in cotyledons or at the bottom of the stem d: number of uninfected seedlings [formula]

- MIC (Pyrenophora graminea): 12.5 µg/mL (≈ 45 µM)
- MIC (Monilinia fructicola): 0.78 µg/mL (≈ 2.81 µM)
- MIC (Cochiobolus sativus): 6.25 µg/mL (≈ 22.5 µM)
- MIC (Corticium rolfsii): > 50 µg/mL
- MIC (Diaporthe citri): 12.5 µg/mL (≈ 45 µM)
- MIC (Ustilago nuda): 12.5 µg/mL (≈ 45 µM)
- MIC (Cladosporium herbarum): 6.25 µg/mL (≈ 22.5 µM)
- MIC (Alternaria kikuchiana): 50 µg/mL (≈ 180 µM)
SMILES: O[C@@]1(c2ccc(Cl)cc2)CCCC[C@H]1n1cncn1 (relative stereo) [Compound 22, cis-1-(4-chlorophenyl)-2-(1,2,4-triazol-1-yl)cyclohexanol]
- times more effective than the corresponding trans isomer [1]: 4-16 times
- Percent Disease Control, Curative Spraying (Puccinia coronata; 12.5 ppm): 64%
- Percent Disease Control, Protective Spraying (Puccinia coronata; 12.5 ppm): 100%
- Percent Disease Control, Curative Spraying (Puccinia coronata; 25 ppm): 88%
- Percent Disease Control, Protective Spraying (Puccinia coronata; 25 ppm): 100%
- Percent Disease Control, Curative Spraying (Puccinia coronata; 50 ppm): 100%
- Percent Disease Control, Protective Spraying (Puccinia coronata; 50 ppm): 100%
- Percent Disease Control, Curative Spraying (Sclerotinia sclerotiorum; 31.3 ppm): 93%
- Percent Disease Control, Protective Spraying (Sclerotinia sclerotiorum; 31.3 ppm): 67%
- Percent Disease Control, Curative Spraying (Sclerotinia sclerotiorum; 125 ppm): 95%
- Percent Disease Control, Protective Spraying (Sclerotinia sclerotiorum; 125 ppm): 100%
- Percent Disease Control, Curative Spraying (Botrytis cinerea; Table 2, 31.3 ppm): 46%
- Percent Disease Control, Protective Spraying (Botrytis cinerea; Table 2, 31.3 ppm): 100%
- Percent Disease Control, Curative Spraying (Botrytis cinerea; Table 2, 125 ppm): 89%
- Percent Disease Control, Protective Spraying (Botrytis cinerea; Table 2, 125 ppm): 100%
- Gray Mold, Percent Disease Control, Curative Spraying (Botrytis cinerea; Table 9, 7.8 ppm): 20%
- Gray Mold, Percent Disease Control, Protective Spraying (Botrytis cinerea; Table 9, 7.8 ppm): 35%
- Gray Mold, Percent Disease Control, Curative Spraying (Botrytis cinerea; Table 9, 31.3 ppm): 88%
- Gray Mold, Percent Disease Control, Protective Spraying (Botrytis cinerea; Table 9, 31.3 ppm): 62%
- Gray Mold, Percent Disease Control, Curative Spraying (Botrytis cinerea; Table 9, 125 ppm): 82%
- Gray Mold, Percent Disease Control, Protective Spraying (Botrytis cinerea; Table 9, 125 ppm): 78%
- Protective Effect by Vapor (Sphaerotheca fuliginea [2]; Table 6, 0.5 ppm): -
- Protective Effect by Vapor (Sphaerotheca fuliginea [2]; Table 6, 2.0 ppm): -
- Protective Effect by Vapor (Sphaerotheca fuliginea [2]; Table 6, 7.8 ppm): +
- Protective Effect by Vapor (Sphaerotheca fuliginea [2]; Table 6, 31.3 ppm): +
- Powdery mildew, Vapor Effect (Sphaerotheca fuliginea [2]; Table 9, 2.0 ppm): -
- Powdery mildew, Vapor Effect (Sphaerotheca fuliginea [2]; Table 9, 7.8 ppm): ±
- Powdery mildew, Vapor Effect (Sphaerotheca fuliginea [2]; Table 9, 31.3 ppm): +
- Powdery mildew, Foliar Treatment, Curative Effect (Sphaerotheca fuliginea [3]; Table 9, 0.03 ppm): 9
- Powdery mildew, Foliar Treatment, Protective Effect (Sphaerotheca fuliginea [3]; Table 9, 0.03 ppm): 0
- Powdery mildew, Foliar Treatment, Curative Effect (Sphaerotheca fuliginea [3]; Table 9, 0.12 ppm): 10
- Powdery mildew, Foliar Treatment, Protective Effect (Sphaerotheca fuliginea [3]; Table 9, 0.12 ppm): 9
- Powdery mildew, Foliar Treatment, Curative Effect (Sphaerotheca fuliginea [3]; Table 9, 0.5 ppm): 10
- Powdery mildew, Foliar Treatment, Protective Effect (Sphaerotheca fuliginea [3]; Table 9, 0.5 ppm): 10
- Powdery mildew, Soil Treatment, Protective Effect (Sphaerotheca fuliginea [3]; Table 9, 0.5 ppm): 0
- Powdery mildew, Foliar Treatment, Curative Effect (Sphaerotheca fuliginea [3]; Table 9, 2.0 ppm): 10
- Powdery mildew, Foliar Treatment, Protective Effect (Sphaerotheca fuliginea [3]; Table 9, 2.0 ppm): 10
- Powdery mildew, Soil Treatment, Protective Effect (Sphaerotheca fuliginea [3]; Table 9, 2.0 ppm): 10
- Powdery mildew, Soil Treatment, Protective Effect (Sphaerotheca fuliginea [3]; Table 9, 7.8 ppm): 10
- Powdery mildew, Soil Treatment, Protective Effect (Sphaerotheca fuliginea [3]; Table 9, 31.3 ppm): 10
- Foliar Treatment, Curative Effect (Sphaerotheca fuliginea [3]; second Table 4, 0.5 ppm): 10
- Foliar Treatment, Protective Effect (Sphaerotheca fuliginea [3]; second Table 4, 0.5 ppm): 5 (Disease sign is observed on the leaf in about 30%.)
- Soil Treatment, Protective Effect (Sphaerotheca fuliginea [3]; second Table 4, 0.5 ppm): 0
- Foliar Treatment, Curative Effect (Sphaerotheca fuliginea [3]; second Table 4, 2.0 ppm): 10
- Foliar Treatment, Protective Effect (Sphaerotheca fuliginea [3]; second Table 4, 2.0 ppm): 10
- Soil Treatment, Protective Effect (Sphaerotheca fuliginea [3]; second Table 4, 2.0 ppm): 5 (Disease sign is observed on the leaf in about 30%.)
- Foliar Treatment, Curative Effect (Sphaerotheca fuliginea [3]; second Table 4, 7.8 ppm): 10
- Foliar Treatment, Protective Effect (Sphaerotheca fuliginea [3]; second Table 4, 7.8 ppm): 10
- Soil Treatment, Protective Effect (Sphaerotheca fuliginea [3]; second Table 4, 7.8 ppm): 10
- Foliar Treatment, Curative Effect (Sphaerotheca fuliginea [3]; second Table 4, 31.3 ppm): 10
- Foliar Treatment, Protective Effect (Sphaerotheca fuliginea [3]; second Table 4, 31.3 ppm): 10
- Soil Treatment, Protective Effect (Sphaerotheca fuliginea [3]; second Table 4, 31.3 ppm): 10

SMILES: O[C@@]1(c2ccc(F)cc2)CCCC[C@H]1n1cncn1 (relative stereo) [Compound 28, 1-(4-fluorophenyl)-2-(1,2,4-triazol-1-yl)cyclohexanol]
- times more effective than the corresponding trans isomer [1]: 4-16 times
- Percent Disease Control, Curative Spraying (Sclerotinia sclerotiorum; 31.3 ppm): 77%
- Percent Disease Control, Protective Spraying (Sclerotinia sclerotiorum; 31.3 ppm): 56%
- Percent Disease Control, Curative Spraying (Sclerotinia sclerotiorum; 125 ppm): 97%
- Percent Disease Control, Protective Spraying (Sclerotinia sclerotiorum; 125 ppm): 80%
- Percent Disease Control, Curative Spraying (Botrytis cinerea; Table 2, 31.3 ppm): 48%
- Percent Disease Control, Protective Spraying (Botrytis cinerea; Table 2, 31.3 ppm): 40%
- Percent Disease Control, Curative Spraying (Botrytis cinerea; Table 2, 125 ppm): 79%
- Percent Disease Control, Protective Spraying (Botrytis cinerea; Table 2, 125 ppm): 100%
- Gray Mold, Percent Disease Control, Curative Spraying (Botrytis cinerea; Table 9, 7.8 ppm): 30%
- Gray Mold, Percent Disease Control, Protective Spraying (Botrytis cinerea; Table 9, 7.8 ppm): 17%
- Gray Mold, Percent Disease Control, Curative Spraying (Botrytis cinerea; Table 9, 31.3 ppm): 92%
- Gray Mold, Percent Disease Control, Protective Spraying (Botrytis cinerea; Table 9, 31.3 ppm): 70%
- Gray Mold, Percent Disease Control, Curative Spraying (Botrytis cinerea; Table 9, 125 ppm): 98%
- Gray Mold, Percent Disease Control, Protective Spraying (Botrytis cinerea; Table 9, 125 ppm): 80%
- Disease Degree (Rhizoctonia solani): 8
- Percent Disease Control (Rhizoctonia solani): 92%
- Powdery mildew, Vapor Effect (Sphaerotheca fuliginea [2]; Table 9, 2.0 ppm): -
- Powdery mildew, Vapor Effect (Sphaerotheca fuliginea [2]; Table 9, 7.8 ppm): ±
- Powdery mildew, Vapor Effect (Sphaerotheca fuliginea [2]; Table 9, 31.3 ppm): +
- Powdery mildew, Foliar Treatment, Curative Effect (Sphaerotheca fuliginea [3]; Table 9, 0.03 ppm): 0
- Powdery mildew, Foliar Treatment, Protective Effect (Sphaerotheca fuliginea [3]; Table 9, 0.03 ppm): 0
- Powdery mildew, Foliar Treatment, Curative Effect (Sphaerotheca fuliginea [3]; Table 9, 0.12 ppm): 7 (Disease sign is observed on the leaf in about 20%.)
- Powdery mildew, Foliar Treatment, Protective Effect (Sphaerotheca fuliginea [3]; Table 9, 0.12 ppm): 0
- Powdery mildew, Foliar Treatment, Curative Effect (Sphaerotheca fuliginea [3]; Table 9, 0.5 ppm): 10
- Powdery mildew, Foliar Treatment, Protective Effect (Sphaerotheca fuliginea [3]; Table 9, 0.5 ppm): 5 (Disease sign is observed on the leaf in about 30%.)
- Powdery mildew, Soil Treatment, Protective Effect (Sphaerotheca fuliginea [3]; Table 9, 0.5 ppm): 0
- Powdery mildew, Foliar Treatment, Curative Effect (Sphaerotheca fuliginea [3]; Table 9, 2.0 ppm): 10
- Powdery mildew, Foliar Treatment, Protective Effect (Sphaerotheca fuliginea [3]; Table 9, 2.0 ppm): 10
- Powdery mildew, Soil Treatment, Protective Effect (Sphaerotheca fuliginea [3]; Table 9, 2.0 ppm): 9
- Powdery mildew, Soil Treatment, Protective Effect (Sphaerotheca fuliginea [3]; Table 9, 7.8 ppm): 10
- Powdery mildew, Soil Treatment, Protective Effect (Sphaerotheca fuliginea [3]; Table 9, 31.3 ppm): 10
- Foliar Treatment, Curative Effect (Sphaerotheca fuliginea [3]; second Table 4, 0.5 ppm): 5 (Disease sign is observed on the leaf in about 30%.)
- Foliar Treatment, Protective Effect (Sphaerotheca fuliginea [3]; second Table 4, 0.5 ppm): 0
- Soil Treatment, Protective Effect (Sphaerotheca fuliginea [3]; second Table 4, 0.5 ppm): 0
- Foliar Treatment, Curative Effect (Sphaerotheca fuliginea [3]; second Table 4, 2.0 ppm): 9
- Foliar Treatment, Protective Effect (Sphaerotheca fuliginea [3]; second Table 4, 2.0 ppm): 5 (Disease sign is observed on the leaf in about 30%.)
- Soil Treatment, Protective Effect (Sphaerotheca fuliginea [3]; second Table 4, 2.0 ppm): 5 (Disease sign is observed on the leaf in about 30%.)
- Foliar Treatment, Curative Effect (Sphaerotheca fuliginea [3]; second Table 4, 7.8 ppm): 10
- Foliar Treatment, Protective Effect (Sphaerotheca fuliginea [3]; second Table 4, 7.8 ppm): 10
- Soil Treatment, Protective Effect (Sphaerotheca fuliginea [3]; second Table 4, 7.8 ppm): 10
- Foliar Treatment, Curative Effect (Sphaerotheca fuliginea [3]; second Table 4, 31.3 ppm): 10
- Foliar Treatment, Protective Effect (Sphaerotheca fuliginea [3]; second Table 4, 31.3 ppm): 10
- Soil Treatment, Protective Effect (Sphaerotheca fuliginea [3]; second Table 4, 31.3 ppm): 10
